Reference: patent publication US7335665B2, “Spirocyclic piperidines as MCH1 antagonists and uses thereof” (H - Lundbeck A/S, priority 2003, dated 2008)

Target: T1, rat MCH1 receptor (Rattus norvegicus, UniProt P97639)
T1 construct: expressed in transfected cells; host or cells: Human embryonic kidney Peak rapid 293 cells (Peakr293), transient, calcium phosphate; membranes
Test: Radioligand binding assay at cloned rat MCH1 receptor ([3H]Compound A displacement)
Conditions: KI, cloned rat MCH1, membranes of transfected Peakr293 cells, 0.08 nM [3H]Compound A, 25° C., 90 minutes
Protocol: For binding assays, pellets of transfected cells are suspended in ice-cold buffer (20 mM Tris.HCl, 5 mM EDTA, pH 7.4) and homogenized by sonication for 7 sec. The cell lysates are centrifuged at 200×g for 5 min at 4° C. The supernatants are then centrifuged at 40,000×g for 20 min at 4° C. The resulting pellets are washed once in the homogenization buffer and suspended in binding buffer (see methods for radioligand binding). Protein concentrations are determined by the method of Bradford (1976) using bovine serum albumin as the standard. Binding assays are usually performed immediately, however it is possible to prepare membranes in batch and store frozen in liquid nitrogen for future use.
Radioligand binding assays for the rat MCH1 receptor were carried out using plasmid pcDNA3.1-rMCH1-f (ATCC Patent Deposit Designation No. PTA-3505). Plasmid pcDNA3.1-rMCH1-f comprises the regulatory elements necessary for expression of DNA in a mammalian cell operatively linked to DNA encoding the rat MCH1 receptor so as to permit expression thereof. Plasmid pcDNA3.1-rMCH1-f was deposited on Jul. 5, 2001, with the American Type Culture Collection (ATCC), 12301 Parklawn Drive, Rockville, Md. 20852, U.S.A. under the provisions of the Budapest Treaty for the International Recognition of the Deposit of Microorganisms for the Purposes of Patent Procedure and was accorded ATCC Patent Deposit Designation No. PTA-3505.
Human embryonic kidney Peak rapid 293 cells (Peakr293 cells) were transiently transfected with DNA encoding the MCH1 receptor utilizing the calcium phosphate method and cell membranes were prepared as described above. Binding experiments with membranes from Peakr293 cells transfected with the rat MCH1 receptor were performed with 0.08 nM [^3H]Compound A (custom labeled by Amersham) (the synthesis of Compound A is described in detail below) using an incubation buffer consisting of 50 mM Tris pH 7.4, 10 mM MgCl2, 0.16 mM PMSF, 1 mM 1,10 phenantroline and 0.2% BSA. Binding was performed at 25° C. for 90 minutes. Incubations were terminated by rapid vacuum filtration over GF/C glass fiber filters, presoaked in 5% PEI using […] Tris pH 7.4 as wash buffer. In all experiments, nonspecific binding is defined using […] Compound A.
The compounds described above were assayed using cloned rat MCH1.

T1 sequence (P97639 whole entry): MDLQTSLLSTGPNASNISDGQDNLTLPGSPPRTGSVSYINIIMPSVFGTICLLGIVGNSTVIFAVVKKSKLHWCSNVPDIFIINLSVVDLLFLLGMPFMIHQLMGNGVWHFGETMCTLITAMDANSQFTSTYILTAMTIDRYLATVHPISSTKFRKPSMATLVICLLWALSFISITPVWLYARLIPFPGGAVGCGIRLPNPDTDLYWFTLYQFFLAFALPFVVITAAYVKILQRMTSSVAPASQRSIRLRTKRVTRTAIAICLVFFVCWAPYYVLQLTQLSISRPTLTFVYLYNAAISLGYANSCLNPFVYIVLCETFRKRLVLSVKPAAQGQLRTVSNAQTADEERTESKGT

In order of falling Ki:
1. O=C(NCCCCCCN1CCC2(CCc3ccccc32)CC1)c1cc(F)cc(F)c1 [Example 14]  843 nM
2. O=C1c2ccccc2C(=O)N1CCCCN1CCC2(C=Cc3ccccc32)CC1 [Example 1, 2-(4-(-(SPIRO[INDENE-1,4′-PIPERIDINE]-10-YL)BUTYL)BENZO[C]AZOLINE-1,3-DIONE]  807 nM
3. CCCc1nn(-c2ccc(Cl)cc2)cc1C(=O)NCCCCCCN1CCC2(CCc3ccccc32)CC1 [Example 10, [1-(4-CHLOROPHENYL)-3-PROPYL)PYRAZOL-4-YL]-N-(6-(SPIRO[INDANE-1,4′-PIPERIDINE]-10-YL)HEXYL)CARBOXAMIDE]  764 nM
4. O=C(NCCCCCCN1CCC2(CCc3ccccc32)CC1)C(c1ccccc1)c1ccccc1 [Example 5, 2,2-DIPHENYL-N-(6-(SPIRO[INDANE-1,4′-PIPERIDINE]-10-Y)LHEXYL)ACETAMIDE]  732 nM
5. O=C(Cc1ccc(F)cc1)NCCCCN1CCC2(CCc3ccccc32)CC1 [Example 9, 2-(4-FLUOROPHENYL)-N-(4-(SPIRO[INDANE-1,4′-PIPERIDINE]-10-YL)BUTYL)ACETAMIDE]  691 nM
6. O=C1OC2(CCN(CCCNC(=O)C(c3ccc(Cl)cc3)c3ccc(Cl)cc3)CC2)c2ccccc21 [Example 94, 2,2-BIS(4-CHLOROPHENYL)-N-[3-(1-OXOSPIRO[3-HYDROISOBENZOFURAN-3,4′-PIPERIDINE]-10-YL)PROPYL]ACETAMIDE]  600 nM
7. CC(C)(C)c1cc(C(=O)NCCCCCCN2CCC3(CCc4ccccc43)CC2)n(Cc2ccccc2)n1 [Example 20, [3-(TERT-BUTYL)-1-BENZYL)PYRAZOL-5-YL]-N-(6-(SPIRO[INDANE-1,4′-PIPERIDINE]-10-YL)HEXYL)CARBOXAMIDE]  510 nM
8. O=C(NCCCCCCN1CCC2(CCc3ccccc32)CC1)c1ccc(Oc2cc(Cl)cc(Cl)c2)o1 [Example 16, [5-(3,5-DICHLOROPHENOXY)(2-FURYL)]-N-(6-(SPIRO[INDANE-1,4′-PIPERIDINE]-10-YL)HEXYL)CARBOXAMIDE]  450 nM
9. O=C(NCCCN1CCC2(CC1)OCc1ccccc12)C1(c2ccc(F)cc2)CCCCC1 [Example 80, [(4-FLUOROPHENYL)CYCLOHEXYL]-N-(3-(SPIRO[1,3-DIHYDROISOBENZOFURAN-1,4′-PIPERIDINE]-10-YL)PROPYL)CARBOXAMIDE]  174 nM
10. O=C(NCCCN1CCC2(CC1)OCc1ccccc12)C(c1ccccc1)(c1ccccc1)c1ccccc1 [Example 77, 2,2,2-TRIPHENYL-N-(3-(SPIRO[1,3-DIHYDROISOBENZOFURAN-1,4′-PIPERIDINE]-10-YL)PROPYL)ACETAMIDE]  151 nM
11. CC(C)(C(=O)NCCCN1CCC2(CCc3ccccc32)CC1)c1ccc(Cl)cc1 [Example 46]  84.1 nM
12. CC(C)(C(=O)NCCCN1CCC2(C=Cc3ccccc32)CC1)c1ccc(Cl)cc1 [Example 65, 2-(4-CHLOROPHENYL)-2-METHYL-N-(3-(SPIRO[INDENE-1,4′-PIPERIDINE]-10-YL)PROPYL)PROPANAMIDE]  78 nM
13. CC(C(=O)NCCCN1CCC2(C=Cc3ccccc32)CC1)(c1ccccc1)c1ccccc1 [Example 63, 2,2-DIPHENYL-N-(3-(SPIRO[INDENE-1,4′-PIPERIDINE]-10-YL)PROPYL)PROPANAMIDE]  46 nM
14. O=C(NCCCN1CCC2(CC1)OCc1ccccc12)C(c1ccc(F)cc1)c1ccc(F)cc1 [Example 84, 2,2-BIS(4-FLUOROPHENYL)-N-(3-(SPIRO[1,3-DIHYDROISOBENZOFURAN-1,4′-PIPERIDINE]-10-YL)PROPYL)ACETAMIDE]  4.9 nM

Same assay, conditions: cloned rat MCH1, membranes of transfected Peakr293 cells, 0.08 nM [3H]Compound A, 25° C., 90 minutes; read-out: KI

In order of falling Ki:
1. O=S(=O)(NCCCCCN1CCC2(CCc3ccccc32)CC1)c1cccc(C(F)(F)F)c1 [Example 21, (5-(SPIRO[INDANE-1,4′-PIPERIDINE]-10-YL)PENTYL){[3-(TRIFLUORO-METHYL)PHENYL]SULFONYL}AMINE]  992 nM
2. Cc1onc(-c2ccccc2Cl)c1C(=O)NCCCCN1CCC2(CCc3ccccc32)CC1 [Example 35, [3-(2-CHLOROPHENYL)-5-METHYLISOXAZOL-4-YL]-N-(4-(SPIRO[INDANE-1,4′-PIPERIDINE]-10-YL)BUTYL)CARBOXAMIDE]  825 nM
3. CC(C)(C)c1cc(C(=O)NCCCCCN2CCC3(C=Cc4ccccc43)CC2)n(Cc2ccccc2)n1 [Example 37, [3-(TERT-BUTYL)-1-BENZYL)PYRAZOL-5-YL]-N-(5-(SPIRO[INDENE-1,4′-PIPERIDINE]-10-YL)PENTYL)CARBOXAMIDE]  794 nM
4. Cc1onc(-c2c(F)cccc2Cl)c1C(=O)NCCCCCCN1CCC2(CCc3ccccc32)CC1 [Example 12, [3-(2-CHLORO-6-FLUOROPHENYL)-5-METHYLISOXAZOL-4-YL]-N-(6-(SPIRO[INDANE-1,4′-PIPERIDINE]-10-YL)HEXYL)CARBOXAMIDE]  661 nM
5. O=C(NCCCCCN1CCC2(CCc3ccccc32)CC1)Nc1cc(Cl)cc(Cl)c1 [Example 25, N-(3,5-DICHLOROPHENYL)[(5-(SPIRO[INDANE-1,4′-PIPERIDINE]-10-YL)PENTYL)AMINO]CARBOXAMIDE]  542 nM
6. O=C(NCCCCN1CCC2(CCc3ccccc32)CC1)c1cccc(Cl)c1 [Example 18, (3-CHLOROPHENYL)-N-(4-(SPIRO[INDANE-1,4′-PIPERIDINE]-10-YL)BUTYL)CARBOXAMIDE]  342 nM
7. O=C(NCCCCN1CCC2(CCc3ccccc32)CC1)c1cc(F)cc(F)c1 [Example 13, (3,5-DIFLUOROPHENYL)-N-(4-(SPIRO[INDANE-1,4′-PIPERIDINE]-10-YL)BUTYL)CARBOXAMIDE]  270 nM
8. O=C(NCCCCN1CCC2(CCc3ccccc32)CC1)C(c1ccccc1)c1ccccc1 [Example 4, 2,2-DIPHENYL-N-(4-(SPIRO[INDANE-1,4′-PIPERIDINE]-10-YL)BUTYL)ACETAMIDE]  214 nM
9. CC(C(=O)NCCCN1CCC2(CCc3ccccc32)CC1)c1ccc(Cl)cc1 (stereo not shown) [Example 50, 2-(4-CHLOROPHENYL)-N-(3-(SPIRO[INDANE-1,4′-PIPERIDINE]-10-YL)PROPYL)PROPANAMIDE]  194 nM
10. O=C(NCCCN1CCC2(C=Cc3ccccc32)CC1)C1(c2ccc(Cl)cc2)CCC1 [Example 74, [(4-CHLOROPHENYL)CYCLOBUTYL]-N-(3-(SPIRO[INDENE-1,4′-PIPERIDINE]-10-YL)PROPYL)CARBOXAMIDE]  185 nM
11. O=C(NCCCN1CCC2(CC1)OCc1ccccc12)C1(c2ccc(Cl)cc2)CCCC1 [Example 85, [(4-CHLOROPHENYL)CYCLOPENTYL]-N-(3-(SPIRO[1,3-DIHYDROISOBENZOFURAN-1,4′-PIPERIDINE]-10-YL)PROPYL)CARBOXAMIDE]  183 nM
12. O=C(NCCN1CCC2(CCc3ccccc32)CC1)c1cc(Cl)cc(Cl)c1 [Example 44, (3,5-DICHLOROPHENYL)-N-(2-(SPIRO[INDANE-1,4′-PIPERIDINE]-10-YLETHYL)CARBOXAMIDE]  182 nM
13. O=C(NCCCN1CCC2(CCc3ccccc32)CC1)C1(c2ccc(F)cc2)CCCCC1 [Example 56, [1-(4-FLUOROPHENYL)CYCLOHEXYL]-N-(3-(SPIRO[INDANE-1,4′-PIPERIDINE]-10-YL)PROPYL)CARBOXAMIDE]  108 nM
14. O=C(NCCN1CCC2(CCc3ccccc32)CC1)C(c1ccccc1)c1ccccc1 [Example 41, 2,2-DIPHENYL-N-(2-(SPIRO[INDANE-1,4′-PIPERIDINE]-10-YLETHYL) ACETAMIDE]  103 nM
15. O=C(NCCCN1CCC2(CC1)Cc1ccccc1C2=O)C(c1ccc(F)cc1)c1ccc(F)cc1 [Example 92, 2,2-BIS(4-FLUOROPHENYL)-N-[3-(1-OXOSPIRO[INDANE-2,4′-PIPERIDINE]-10-YL)PROPYL]ACETAMIDE]  61.6 nM
16. O=C(NCCCN1CCC2(CCc3ccccc32)CC1)C1(c2ccc(Cl)cc2)CCCCC1 [Example 53, 1-[(4-CHLOROPHENYL)CYCLOHEXYL]-N-(3-(SPIRO[INDANE-1,4′-PIPERIDINE]-10-YL)PROPYL)CARBOXAMIDE]  56.9 nM
17. O=C(NCCCN1CCC2(CCc3ccccc32)CC1)C(c1ccccc1)c1ccccc1 [Example 6, 2,2-DIPHENYL-N-(3-(SPIRO[INDANE-1,4′-PIPERIDINE]-10-YL)PROPYL)ACETAMIDE]  33.8 nM
18. O=C(NCCCN1CCC2(CCc3ccccc32)CC1)C(c1ccc(Cl)cc1)c1ccc(Cl)cc1 [Example 55, 2,2-BIS(4-CHLOROPHENYL)-N-(3-(SPIRO[INDANE-1,4′-PIPERIDINE]-10-YL)PROPYL)ACETAMIDE]  8.6 nM
19. O=C(NCCCN1CCC2(CCc3ccccc32)CC1)C(c1ccc(F)cc1)c1ccc(F)cc1 [Example 57, 2,2-BIS(4-FLUOROPHENYL)-N-(3-(SPIRO[INDANE-1,4′-PIPERIDINE]-10-YL)PROPYL)ACETAMIDE]  4.2 nM
20. O=C(NCCCN1CCC2(CC1)OCc1ccc(Cl)cc12)C(c1ccccc1)c1ccccc1 [Example 100, N-[3-(5-CHLOROSPIRO[1,3-DIHYDROISOBENZOFURAN-3,4′-PIPERIDINE]-10-YL)PROPYL]-2,2-DIPHENYLACETAMIDE]  2.6 nM
